In patent US20220031798A1, “METHODS AND COMPOSITIONS FOR THE TREATMENT OF OPIOID DEPENDENCE AND FOR THE TREATMENT OF PAIN” (Duke University, priority 2018, published 2022):
“Also recorded” adds a separate entry of the source. Residues, ends and D or L forms follow the SMILES beside them.

Tests used:
[1] = system: morphine-dependent Sprague-Dawley rats; test: Naloxone-precipitated opioid withdrawal signs after 5-day morphine regimen; type: in vivo, rat; conditions: for Withdrawal signs after naloxone challenge on Day 9: Study 2: adolescent male and female rats, 5 days morphine, then 3 days ketamine 1 mg/kg bid or rapastinel 5 mg/kg alternate days i.p., naloxone 1 mg/kg; for Withdrawal signs after naloxone challenge on day 9, adolescent vs adult: Study 3: adolescent and adult rats
Method: Male and female adolescent and adult Sprague-Dawley rats (PN 28-30 and PN 60-75) from Charles River Laboratories were treated with a 5-day, increasing dose morphine regimen (5 mg/kg bid, increasing 5 mg/kg/day to 25 mg/kg) to induce opioid dependency. Animals were group-housed in a 12/12 light/dark cycle with free access to water and standard lab chow. Agents were administered by intraperitoneal injection. In Study 1, animals received morphine (25 mg/kg) on day 6 followed 1 hour later by a naloxone challenge (1 mg/kg) and withdrawal behaviors were quantified as described by Gellert and Holtzman (J Pharmacol Exp Ther. 1978; 205(3):536-546). A second morphine/naloxone challenge was given 21 days later (study day 27). In Study 2 (see FIG. 1), male and female adolescent rats received the same morphine treatment, but on day 6 they received naloxone only (1 mg/kg) to precipitate withdrawal and withdrawal signs (wet dog shakes, diarrhea, mastication, salivation, ptosis and abnormal posture) were assessed as in Study 1. Then animals received saline, ketamine (1 mg/kg, bid) or rapastinel (5 mg/kg on alternate days). On day 9, animals received a second naloxone challenge (1 mg/kg) without a previous morphine treatment, and withdrawal signs were quantified to measure efficacy of ketamine and rapastinel. Study 3 compared the ability of rapastinel to accelerate the loss of opioid withdrawal signs in adult and adolescent rats and Study 4 compared rapastinel effects in male and female adults. Treatment results were analyzed by sequential 3-way (age×sex×treatment) and 1 way (treatment) ANOVA using NCSS followed by post-hoc Fishers LSD multiple comparison test to compare differences between groups. All experiments were approved by the Duke University IACUC and conducted in accordance with the NIH Guide for the Care and Use of Laboratory Animals.
Opioid withdrawal: Animals are treated with saline or naloxone as described. Ten minutes later they are scored by a modification of the Gellert/Holtzman scale for wet dog shakes, diarrhea, mastication, salivation, ptosis and abnormal posture.

morphine-dependent rats = test: Withdrawal-precipitated hyperalgesia, von Frey test of pain sensitivity; type: in vivo, rat
Source text: FIG. 6. Schematic for withdrawal-precipitated hyperalgesia studies and schematic for von Frey test of pain sensitivity.
There was no difference in hyperalgesia caused by morphine withdrawal before treatment; there was significant expression of naloxone-precipitated hyperalgesia in morphine dependent animals.

GluR1 = GluR1 expression in medial prefrontal cortex by Western blot; type: in vivo, rat; conditions: mPFC dissected at end of treatment
Method: The medial prefrontal cortex (mPFC) Brain Region is responsible for decision making in the context of reward (opioids) and penalty (withdrawal). Rats were treated with morphine in accordance with the methods of Example 1. The mPFC was dissected from rats at end of treatment and GluR1 expression levels were measured with a Western Blot test.

[2] = system: adult male and female rats; test: Relapse to morphine conditioned place preference (CPP); type: in vivo, rat; conditions: rapastinel 5 mg/kg during extinction days 6-9 and before relapse test, morphine 2.5 mg/kg
Method: CPP and extinction were conducted in adult male and female rats with a biased CPP procedure adapted from Mueller et al. (Mueller et al., Behavior. Brain Res 136: 389-397(2002)). CPP is conducted in a two-sided chamber. Side 1 had white walls and plexiglass flooring, and Side 2 had black walls and plastic mesh flooring (preferred side).
Rats went through a conditioned place preference procedure involving daily pairing with saline and morphine (2.5 mg/kg) on opposite sides of the CPP apparatus for 4 days. On habituation day (day 1), animals were allowed to explore the whole apparatus for 30 minutes. On days 2-4, rats were restricted to Side 1 for morphine (2.5 mg/kg sc) and Side 2 for saline (alternated am and pm daily). On day 5 they received a test of conditioning in which they were allowed to explore the whole apparatus. For the next 4 days (days 6-9) they received daily saline or rapastinel (5 mg/kg) 30 minutes before twice daily extinction trials in which animals received saline on both sides of the apparatus. They received an extinction test in which they were allowed to explore the entire apparatus on day 10, and then a relapse test on day 11 in which they received a dose of saline or rapastinel, followed by saline or 2.5 mg/kg of morphine and were allowed to explore the apparatus.
N=5 for rapastinel and 3 for saline.

[3] = animal models (Moskal et al., 2016); cited from earlier work
[4] = animal models; cited from earlier work
[5] = humans; cited from earlier work

## C[C@@H](O)[C@H](N)C(=O)N1CCCC1C(=O)N1CCC[C@H]1C(=O)N[C@H](C(N)=O)[C@@H](C)O (stereo partly drawn) [Rapastinel, rapastinel] (HELM PEPTIDE1{T.[O=C(C1CCCN1[*:1])[*:2]].P.T.[am]}$$$$V2.0)
[1]
  Withdrawal signs after naloxone challenge on Day 9: extinguished naloxone-precipitated withdrawal; also recorded: caused an enhanced loss of opioid withdrawal signs; also recorded: accelerated loss of withdrawal signs
[1]; 5 days morphine then 3 days saline or rapastinel
  Withdrawal signs after naloxone challenge on day 9, adolescent vs adult: extinguished naloxone-precipitated withdrawal comparably in adolescent and adult rats; also recorded: accelerated extinction of opioid withdrawal at both ages; also recorded: significantly enhanced recovery from opioid dependence in both adolescent and adult rats
[1]; 5 days morphine then 3 days saline or rapastinel, listed as rapastinel
  Withdrawal signs after naloxone challenge on day 9, adolescent vs adult: effective
[1]; Study 4: male and female rats, 5 days morphine then 3 days saline or rapastinel
  Withdrawal signs after naloxone challenge on day 9, male vs female: extinguished naloxone-precipitated withdrawal comparably in male and female rats
morphine-dependent rats; morphine-dependent rats, Day 9 following treatment
  Hyperalgesia scores: trend towards a return to baseline (SS) hyperalgesia scores; also recorded: blunts hyperalgesia
morphine-dependent rats; saline (morphine-naive) rats
  Baseline (SS) hyperalgesia response: does not alter baseline (SS) response
GluR1
  GluR1 expression in the mPFC: no significant effect
[2]
  Difference in time spent on drug-paired side, day 11 (relapse test) vs day 10 (extinction trial): blocks relapse to conditioned place preference
[2]; listed as rapastinel
  Difference in time spent on drug-paired side, day 11 (relapse test) vs day 10 (extinction trial): blunted morphine-induced relapse
[3]
  Negative side effects during treatment: has not been shown to produce any negative side effects

## N[C@@H]1CON=C1O [d-cycloserine]
[4]
  CPP extinction and naloxone place aversion: facilitated CPP extinction and naloxone place aversion
[5]
  Half-life: short half-life

## CNC1(c2ccccc2Cl)CCCCC1=O (stereo not drawn) [ketamine]
[1]
  Withdrawal signs after naloxone challenge on Day 9: not ketamine extinguished naloxone-precipitated withdrawal; also recorded: not ketamine caused an enhanced loss of opioid withdrawal signs; also recorded: not ketamine accelerated loss of withdrawal signs; also recorded: only marginally effective

## CN1CC[C@]23c4c5ccc(O)c4O[C@H]2[C@@H](O)C=C[C@H]3[C@H]1C5 [morphine]
GluR1
  GluR1 expression in the mPFC: higher expression of GluR1; also recorded: significantly (p<0.001) higher GluR1 expression

## C=CCN1CC[C@]23c4c5ccc(O)c4O[C@H]2C(=O)CC[C@@]3(O)[C@H]1C5 [naloxone]
[1]; Study 1: 5 days morphine, morphine 25 mg/kg then naloxone 1 mg/kg 1 hour later, adolescent and adult rats
  Withdrawal response to morphine/naloxone challenge on Day 6: elicited a robust withdrawal response
